Laboratory results taken from US20090227575A1, “7H-PYRROLO[2,3-H]QUINAZOLINE COMPOUNDS, THEIR USE AS mTOR KINASE AND PI3 KINASE INHIBITORS, AND THEIR [sequence]” (Wyeth, priority 2008, published 2009).

Assays:
Format in all cases: biochemical
[1] = target: Human mTOR (Homo sapiens, UniProt P42345); experiment: mTOR kinase assay (DELFIA format, purified enzyme); set-up: FLAG; settings: read-out: TOR Kinase IC50
[2] = target: PI3K-alpha (Homo sapiens, UniProt P42336); experiment: PI3K-alpha fluorescence polarization assay; settings: read-out: PI3 Kinase α IC50
PI3K-alpha, sequence (P42336 whole entry, species assumed): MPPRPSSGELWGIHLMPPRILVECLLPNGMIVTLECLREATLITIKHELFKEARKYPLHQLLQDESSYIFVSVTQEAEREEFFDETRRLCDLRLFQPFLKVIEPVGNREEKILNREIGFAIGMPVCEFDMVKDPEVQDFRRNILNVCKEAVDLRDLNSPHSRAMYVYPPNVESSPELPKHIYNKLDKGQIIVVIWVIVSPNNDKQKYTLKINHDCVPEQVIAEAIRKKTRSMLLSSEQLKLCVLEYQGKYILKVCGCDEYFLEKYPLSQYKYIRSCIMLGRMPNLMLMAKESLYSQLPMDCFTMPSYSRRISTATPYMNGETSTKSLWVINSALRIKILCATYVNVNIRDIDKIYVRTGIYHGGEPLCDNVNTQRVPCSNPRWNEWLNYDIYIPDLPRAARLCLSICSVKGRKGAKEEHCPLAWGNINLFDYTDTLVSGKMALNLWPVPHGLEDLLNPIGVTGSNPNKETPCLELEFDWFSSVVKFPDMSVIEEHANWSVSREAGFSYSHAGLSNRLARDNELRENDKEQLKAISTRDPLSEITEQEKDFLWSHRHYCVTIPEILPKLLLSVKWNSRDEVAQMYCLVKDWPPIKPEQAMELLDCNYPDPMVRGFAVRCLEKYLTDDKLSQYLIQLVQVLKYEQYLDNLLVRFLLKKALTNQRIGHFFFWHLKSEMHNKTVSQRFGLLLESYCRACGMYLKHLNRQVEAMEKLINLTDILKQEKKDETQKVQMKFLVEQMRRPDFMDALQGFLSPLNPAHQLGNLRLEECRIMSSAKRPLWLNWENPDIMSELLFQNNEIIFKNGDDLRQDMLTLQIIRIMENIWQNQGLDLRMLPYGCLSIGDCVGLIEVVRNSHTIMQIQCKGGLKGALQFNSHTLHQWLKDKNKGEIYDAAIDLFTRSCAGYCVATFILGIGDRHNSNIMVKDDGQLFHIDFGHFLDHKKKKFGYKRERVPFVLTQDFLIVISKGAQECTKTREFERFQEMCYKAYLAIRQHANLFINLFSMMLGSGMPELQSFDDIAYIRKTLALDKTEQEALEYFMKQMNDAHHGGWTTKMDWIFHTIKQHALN
PI3K-alpha, sequence (P27986 whole entry partner, species assumed): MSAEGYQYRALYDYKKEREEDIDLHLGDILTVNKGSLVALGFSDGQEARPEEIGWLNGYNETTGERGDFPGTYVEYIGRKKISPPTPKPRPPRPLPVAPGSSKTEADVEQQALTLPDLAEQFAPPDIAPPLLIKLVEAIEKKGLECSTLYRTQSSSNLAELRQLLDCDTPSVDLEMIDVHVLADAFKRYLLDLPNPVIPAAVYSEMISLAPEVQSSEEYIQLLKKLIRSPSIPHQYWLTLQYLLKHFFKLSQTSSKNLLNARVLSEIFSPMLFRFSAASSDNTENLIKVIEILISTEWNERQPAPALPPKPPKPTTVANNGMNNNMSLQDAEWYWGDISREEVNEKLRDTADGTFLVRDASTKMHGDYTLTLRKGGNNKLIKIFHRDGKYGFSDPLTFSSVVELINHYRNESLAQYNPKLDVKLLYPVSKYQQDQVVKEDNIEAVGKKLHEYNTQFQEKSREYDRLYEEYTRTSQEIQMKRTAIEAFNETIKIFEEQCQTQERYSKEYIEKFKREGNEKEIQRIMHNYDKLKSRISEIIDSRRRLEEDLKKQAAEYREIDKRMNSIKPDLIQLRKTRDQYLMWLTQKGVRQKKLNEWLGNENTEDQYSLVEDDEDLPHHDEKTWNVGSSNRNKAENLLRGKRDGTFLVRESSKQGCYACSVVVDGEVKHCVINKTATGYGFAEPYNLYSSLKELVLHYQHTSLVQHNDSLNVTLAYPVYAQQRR
Description: (§1) The reaction buffer was 20 mM HEPES, pH 7.5, 2 mM MgCl2, 0.05% CHAPS; and 0.01% βME (added fresh). The Stop/Detection Buffer was 100 mM HEPES, pH 7.5, 4 mM EDTA, 0.05% CHAPS; ATP 20 mM in water; PIP2 (diC8, Echelon, Salt Lake City Utah cat #P-4508) 1 mM in water (MW=856.5). The GST-GRP was 1.75 mg/mL or 1.4 mg/mL in 10% glycerol. The Red detector (TAMRA) was 2.5 μM. Nunc 384-well black polypropylene fluorescent plates were used for PI3K assays.
(§2) The assay is run by placing 5 μL of diluted enzyme per well, then 5 μL of diluted compound (or 9.5 μL enzyme then 0.5 μL compound in DMSO) is added and mixed. Then, 10 μL substrate is added to start the reaction. The samples are incubated 30-60 minutes, then the reaction is stopped by adding 20 μL stop/detector mix. PI3K is diluted with reaction buffer (e.g., 5 μL or 7.5 μL PI3K into 620 μL reaction buffer), and 5 μL of diluted enzyme is used per well. A 5 μL portion of reaction buffer or of drug diluted in buffer (e.g., 4 μL/100 so final DMSO is 1% in reaction) is added to each. Pipetting up and down mixes the samples. Alternatively, the enzyme can be diluted to 1215 μL. In this case 9.8 μL is added per well and 0.2 μL compound is added in DMSO.
(§3) To prepare 1 mL of substrate solution, 955 μL reaction buffer, 40 μL PIP2, and 2.5 μL ATP are mixed. 10 μL of substrate is added to each well to start the reaction. […] The stop/detector mix is prepared by mixing 4 μL Red detector and 1.6 μL or 2.0 μL GST-GRP with 1 mL stop buffer, which results in 10 nM probe and 70 nM GST-GRP. 20 μL of the stop/detector mix is added to each well to stop the reaction. The plates are read after 30-90 minutes keeping the red probe solutions dark. For the zero time point, stop/detector mix is added to the enzyme just before adding substrate. For an extra control, stop/detector mix is added to buffer (no enzyme) and substrate or to just buffer (no substrate). […] The recommended reaction has 0.06 μL per 20 μL (0.015 μg/20 μL) or 0.01125 μg/15 μL or 0.75 μg/mL.
(§4) Plates are read on machines with filters for TAMRA. The units are mP with no enzyme controls reading app 190-220 mP units. Fully active enzyme reduces fluorescence polarization down to 70-100 mP after 30 minutes. An active compound raises the mP values halfway to control or to 120-150 mP units.

[3] = target: PI3K-gamma (Homo sapiens, UniProt P48736); experiment: PI3K-gamma fluorescence polarization assay; settings: read-out: PI3 Kinase γ IC50
PI3K-gamma, sequence (P48736 whole entry, species assumed): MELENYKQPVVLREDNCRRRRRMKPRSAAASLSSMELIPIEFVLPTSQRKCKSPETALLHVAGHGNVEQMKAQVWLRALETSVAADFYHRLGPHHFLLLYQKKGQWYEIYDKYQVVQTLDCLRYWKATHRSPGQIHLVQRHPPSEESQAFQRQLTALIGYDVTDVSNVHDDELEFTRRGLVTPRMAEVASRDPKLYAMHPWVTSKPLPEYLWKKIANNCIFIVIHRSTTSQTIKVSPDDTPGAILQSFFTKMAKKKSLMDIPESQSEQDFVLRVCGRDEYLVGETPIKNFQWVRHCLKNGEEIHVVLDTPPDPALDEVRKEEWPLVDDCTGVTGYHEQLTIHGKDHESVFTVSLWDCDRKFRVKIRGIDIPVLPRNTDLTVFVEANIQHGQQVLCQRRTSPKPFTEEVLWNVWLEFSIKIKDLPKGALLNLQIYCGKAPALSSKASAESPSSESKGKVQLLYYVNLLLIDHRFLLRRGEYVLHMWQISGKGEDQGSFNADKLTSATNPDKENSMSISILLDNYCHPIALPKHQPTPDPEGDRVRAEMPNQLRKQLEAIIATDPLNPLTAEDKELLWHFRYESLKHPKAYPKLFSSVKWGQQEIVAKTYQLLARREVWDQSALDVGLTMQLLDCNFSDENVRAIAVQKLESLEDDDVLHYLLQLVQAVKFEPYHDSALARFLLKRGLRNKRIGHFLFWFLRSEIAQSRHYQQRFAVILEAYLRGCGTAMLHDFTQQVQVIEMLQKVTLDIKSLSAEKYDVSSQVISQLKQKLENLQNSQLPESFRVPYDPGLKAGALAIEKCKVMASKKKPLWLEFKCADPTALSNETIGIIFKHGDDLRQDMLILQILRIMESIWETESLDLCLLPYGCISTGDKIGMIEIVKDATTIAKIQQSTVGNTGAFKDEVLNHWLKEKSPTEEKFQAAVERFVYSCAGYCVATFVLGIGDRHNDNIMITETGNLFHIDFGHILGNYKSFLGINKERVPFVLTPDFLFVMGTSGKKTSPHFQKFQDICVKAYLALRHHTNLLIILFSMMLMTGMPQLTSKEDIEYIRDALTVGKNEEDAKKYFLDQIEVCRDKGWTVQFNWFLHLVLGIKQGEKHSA
Description: as §1, §2, §3, §4

Structure (SMILES) | IC50 [1] | IC50 [2] | IC50 [3]
Cn1ccc2c3nc(-c4ccc(C(=O)O)cc4)nc(N4CCOCC4)c3ccc21 [Example 38, 4-(7-methyl-4-morpholin-4-yl-7H-pyrrolo[2,3-h]quinazolin-2-yl)benzoic acid] | 4 µM |  | 
Nc1ncc(-c2nc(N3CCOCC3)c3ccc4c(ccn4S(=O)(=O)c4ccccc4)c3n2)cn1 [Example 71, 5-[4-morpholin-4-yl-7-(phenylsulfonyl)-7H-pyrrolo[2,3-h]quinazolin-2-yl]pyrimidin-2-amine] | 0.545 µM | 0.052 µM | 0.114 µM
Cn1ccc2c3nc(-c4ccc(NC(=O)NCCCn5ccnc5)cc4)nc(N4CCOCC4)c3ccc21 [Example 8, 1-[3-(1H-imidazol-1-yl)propyl]-3-[4-(7-methyl-4-morpholin-4-yl-7H-pyrrolo[2,3-h]quinazolin-2-yl)phenyl]urea] | 0.19 µM | 0.431 µM | 3.04 µM
O=S(=O)(C1CCNCC1)n1ccc2c3nc(-c4cccc(O)c4)nc(N4CCOCC4)c3ccc21 [Example 67, 3-[4-morpholin-4-yl-7-(piperidin-4-ylsulfonyl)-7H-pyrrolo[2,3-h]quinazolin-2-yl]phenol] | 0.67 µM | 0.231 µM | 1.58 µM
Cn1ccc2c3nc(-c4cncc(O)c4)nc(N4CCOCC4)c3ccc21 [Example 78, 5-(7-methyl-4-morpholin-4-yl-7H-pyrrolo[2,3-h]quinazolin-2-yl)pyridin-3-ol] | 0.305 µM | 0.073 µM | 0.39 µM
CC(C)(C)OC(=O)Cn1ccc2c3nc(-c4ccc(N)nc4)nc(N4CCOCC4)c3ccc21 [Example 60, tert-butyl [2-(6-aminopyridin-3-yl)-4-morpholin-4-yl-7H-pyrrolo[2,3-h]quinazolin-7-yl]acetate] | 1.35 µM | 0.775 µM | 4.89 µM
CS(=O)(=O)n1ccc2c3nc(-c4cccc(CO)c4)nc(N4CCOCC4)c3ccc21 [Example 74, {3-[7-(methylsulfonyl)-4-morpholin-4-yl-7H-pyrrolo[2,3-h]quinazolin-2-yl]phenyl}methanol] | 0.545 µM | 0.212 µM | 1.19 µM
CC(C)CC(O)c1cccc(-c2nc(N3CCOCC3)c3ccc4c(ccn4C)c3n2)c1 (stereo not shown) [Example 28, 3-methyl-1-[3-(7-methyl-4-morpholin-4-yl-7H-pyrrolo[2,3-h]quinazolin-2-yl)phenyl]butan-1-ol] | 2.7 µM | 2.51 µM | 4.52 µM
Cn1ccc2c3nc(-c4ccc(NC(=O)c5ccncc5)cc4)nc(N4CCOCC4)c3ccc21 [Example 18, N-[4-(7-methyl-4-morpholin-4-yl-7H-pyrrolo[2,3-h]quinazolin-2-yl)phenyl]isonicotinamide] | 1.45 µM | 4.46 µM | 5.62 µM
O=C(Nc1ccncc1)Nc1ccc(-c2nc(N3CCOCC3)c3ccc4c(ccn4S(=O)(=O)C4CCN(C(=O)OCc5ccccc5)CC4)c3n2)cc1 [Example 61, benzyl 4-[(4-morpholin-4-yl-2-{4-[(pyridin-4-ylcarbamoyl)amino]phenyl}-7H-pyrrolo[2,3-h]quinazolin-7-yl)sulfonyl]piperidine-1-carboxylate] | 0.13 µM | 0.384 µM | 3.49 µM
Cn1ccc2c3nc(-c4cccc(C#N)c4)nc(N4CCOCC4)c3ccc21 [Example 40, 3-(7-methyl-4-morpholin-4-yl-7H-pyrrolo[2,3-h]quinazolin-2-yl)benzonitrile] | 2.3 µM |  | 
CN1CCC(S(=O)(=O)n2ccc3c4nc(-c5ccc(NC(=O)Nc6ccncc6)cc5)nc(N5CCOCC5)c4ccc32)CC1 [Example 63, 1-(4-{7-[(1-methylpiperidin-4-yl)sulfonyl]-4-morpholin-4-yl-7H-pyrrolo[2,3-h]quinazolin-2-yl}phenyl)-3-pyridin-4-ylurea] | 0.067 µM | 0.119 µM | 0.491 µM
Cn1ccc2c3nc(-c4ccc(NS(=O)(=O)c5ccccc5)cc4)nc(N4CCOCC4)c3ccc21 [Example 22, N-[4-(7-methyl-4-morpholin-4-yl-7H-pyrrolo[2,3-h]quinazolin-2-yl)phenyl]benzenesulfonamide] | 5.3 µM | 8.4 µM | 6.16 µM
Nc1ncc(-c2nc(N3CCOCC3)c3ccc4[nH]ccc4c3n2)cn1 [Example 58, -(4-morpholin-4-yl-7H-pyrrolo[2,3-h]quinazolin-2-yl)pyrimidin-2-amine] | 0.155 µM | 0.102 µM | 0.471 µM
COCOc1cncc(-c2nc(N3CCOCC3)c3ccc4c(ccn4S(C)(=O)=O)c3n2)c1 [Example 75, 2-[5-(methoxymethoxy)pyridin-3-yl]-7-(methylsulfonyl)-4-morpholin-4-yl-7H-pyrrolo[2,3-h]quinazoline] | 16.5 µM | > 10 µM | > 10 µM
CCCNC(=O)Nc1ccc(-c2nc(N3CCOCC3)c3ccc4c(ccn4C)c3n2)cc1 [Example 54, 1-[4-(7-methyl-4-morpholin-4-yl-7H-pyrrolo[2,3-h]quinazolin-2-yl)phenyl]-3-propylurea] | 0.021 µM |  | 
C=CC(O)c1cccc(-c2nc(N3CCOCC3)c3ccc4c(ccn4C)c3n2)c1 (stereo not shown) [Example 26, 1-[3-(7-methyl-4-morpholin-4-yl-7H-pyrrolo[2,3-h]quinazolin-2-yl)phenyl]prop-2-en-1-ol] | 2.1 µM | 5.42 µM | > 10 µM
Cn1ccc2c3nc(-c4cccc(C=O)c4)nc(N4CCOCC4)c3ccc21 [Example 23, 3-(7-methyl-4-morpholin-4-yl-7H-pyrrolo[2,3-h]quinazolin-2-yl)benzaldehyde] | 0.32 µM | 5.33 µM | 9.5 µM
CN(C)CCCNC(=O)Nc1ccc(-c2nc(N3CCOCC3)c3ccc4c(ccn4C)c3n2)cc1 [Example 5, 1-[3-(dimethylamino)propyl]-3-[4-(7-methyl-4-morpholin-4-yl-7H-pyrrolo[2,3-h]quinazolin-2-yl)phenyl]urea] | 2.05 µM | 2.7 µM | 
Cn1ccc2c3nc(-c4cccc(S(=O)(=O)NC5CC5)c4)nc(N4CCOCC4)c3ccc21 [Example 56, N-cyclopropyl-3-(7-methyl-4-morpholin-4-yl-7H-pyrrolo[2,3-h]quinazolin-2-yl)benzenesulfonamide] | 0.05 µM | 6.97 µM | 6.7 µM
CN(C)CCn1ccc2c3nc(-c4cccc(CO)c4)nc(N4CCOCC4)c3ccc21 [Example 30, (3-{7-[2-(dimethylamino)ethyl]-4-morpholin-4-yl-7H-pyrrolo[2,3-h]quinazolin-2-yl}phenyl)methanol] | 9.15 µM | 0.455 µM | 4.95 µM
Cn1ccc2c3nc(-c4ccc(N)cc4)nc(N4CCOCC4)c3ccc21 [Example 1, 4-(7-methyl-4-morpholin-4-yl-7H-pyrrolo[2,3-h]quinazolin-2-yl)aniline] | 0.805 µM | 6.48 µM | 
Cn1ccc2c3nc(-c4cccc(C(N)=O)c4)nc(N4CCOCC4)c3ccc21 [Example 39, 3-(7-methyl-4-morpholin-4-yl-7H-pyrrolo[2,3-h]quinazolin-2-yl)benzamide] | 1.72 µM |  | 
CN1CCN(C(=O)Nc2ccc(-c3nc(N4CCOCC4)c4ccc5c(ccn5C)c4n3)cc2)CC1 [Example 6, 4-methyl-N-[4-(7-methyl-4-morpholin-4-yl-7H-pyrrolo[2,3-h]quinazolin-2-yl)phenyl]piperazine-1-carboxamide] | 2.55 µM | 7.63 µM | 
Cn1ccc2c3nc(-c4ccc(NS(C)(=O)=O)cc4)nc(N4CCOCC4)c3ccc21 [Example 21, N-[4-(7-methyl-4-morpholin-4-yl-7H-pyrrolo[2,3-h]quinazolin-2-yl)phenyl]methanesulfonamide] |  | 7.83 µM | > 10 µM
Cn1ccc2c3nc(-c4cccc(F)c4)nc(N4CCOCC4)c3ccc21 [Example 52, 2-(3-fluorophenyl)-7-methyl-4-morpholin-4-yl-7H-pyrrolo[2,3-h]quinazoline] |  | 8.88 µM | 3.67 µM
Cn1ccc2c3nc(-c4cnc(O)nc4)nc(N4CCOCC4)c3ccc21 [Example 51, 5-(7-methyl-4-morpholin-4-yl-7H-pyrrolo[2,3-h]quinazolin-2-yl)pyrimidin-2-ol] |  | > 10 µM | > 10 µM
